Assay results from patent US9556437B2, “FAT1 gene in cancer and inflammation” (DEPARTMENT OF BIOTECHNOLOGY (DBT), priority 2012, dated 2017).
Entries after “also recorded” stand apart in the source; their conditions may differ.

Experiments:
Assay type in all cases: cell-based, human
phospho-c-jun = experiment: Western blot phospho-c-jun (Ser63); conditions: U87MGsiFAT1 vs siControl
Protocol: Western Blotting Analyses: Cells were lysed in triple detergent buffer containing protease and phosphatase inhibitors (Sigma Aldrich), lysates were quantified by BCA kit (Pierce, Thermo Fisher Scientific, Rockford, Ill. USA) and electrophoresed in 10% SDS-PAGE and electroblotted on nitrocellulose membrane (Millipore, Billerica, Mass., USA). Membrane was blocked with 5% bovine serum albumin (BSA) in 1×TBS at 4° C. for overnight. Primary and secondary antibody was diluted in 5% BSA and 0.1% tween-20 in 1×TBS. Blot was incubated in primary antibody overnight at 4° C. followed by secondary antibody incubation for 2 hrs at room temperature. Blot was developed by BCIP-NBT (Promega, Madison, Wis., USA) and captured using Alpha Imager EP software.

U87MG cells [1] = experiment: MTT assay; conditions: 24, 48, 72 and 96 hrs of transfection, vs siControl
Protocol: On day 1, siRNA transfection was carried out. 1 ml of OPTIMEM, 50 picomoles of siRNA (siControl and siFAT1) and 3 μl of LIPOFECTAMINE 2000 was used per well. Cells were then analyzed by flow-cytometery after 72 hrs of transfection to assess the cell cycle distribution of individual cells. Cells were fixed in 70% ethanol overnight at −20′C followed by propidium iodide (PI) staining. Florescence was measured on FACS (florescence activated cell sorter, BD Biosciences, Bedford, Mass.). […] On day 1, transfection was carried out. 50 μl of OPTIMEM, 2 picomoles of siRNA (control and FAT1 siRNA) and 0.5 μl of LIPOFECTAMINE 2000 was used per well. After 4 hrs incubation at 37° C., 50 μl 2× media was added per well. After every time point (24, 48, 72 and 96 hrs of transfection), media was removed from wells and 100 μl of MTT (0.2 mg/ml) was added per well and incubated for 2-4 hrs. The formazan crystals formed were dissolved by addition of 100 μl of DMSO and absorbance was measured at 570 nm.

U87MG cells [2] = experiment: Apoptosis by caspase3 Western blot and DAPI staining; conditions: 72 hrs of transfection

## siFAT1: FAT1 specific siRNA (Invitrogen), FAT Stealth RNAi siRNA-I (HSS103567), used for further experiments (sense CCCAACACACCUGUGGUCAUGGUAA; antisense UUACCAUGACCACAGGUGUGUUGGG; Stealth modification, chemistry not fully specified; listed as Homo sapiens)
phospho-c-jun
  c-jun phosphorylation (p-c-jun level): significantly decreased; also recorded: significant reduction
U87MG cells [1]
  cell viability / proliferation by MTT: no variation; also recorded: No significant difference
U87MG cells [2]
  DNA fragmentation (DAPI staining): no DNA fragmentation; also recorded: No differences
  cleaved caspase-3 (Western blot): no cleaved caspase-3; also recorded: No differences
